Molecules are shown by their SMILES. Numbered stars: 1 amine (or outer) side, 2 acyl side, 3 side chain; on linkers, the order of the positions; unused ones are H or OH. Square brackets hold non-standard residues; d marks the D form. Side chains are listed from the residue outwards. Peptide text beside a SMILES is read from it. * marks the point of attachment. X9 = O=C1CN2CCN3CCN(CC(=O)N4CC(C(=O)*)C4)CCN(CC2)CC(=O)[O][Lu]([O]1)[O]C(=O)C3; DOTA(Lu) = O=C1CN2CCN3CCN(CC(=O)*)CCN(CC2)CC(=O)[O][Lu]([O]1)[O]C(=O)C3; Ala(piperidin-4-yl) = O=C([C@H](CC1CCN([*:3])CC1)N[*:1])[*:2]; dTrp(βS-Me) = C[C@@H](c1c[nH]c2ccccc12)[C@@H](N)C(=O)O; Ala(piperazin-1-yl) = N[C@@H](CN1CCNCC1)C(=O)O; Ethylenediamine = C(CN[*:2])N[*:1]; Hyp = O=C(O)[C@@H]1C[C@@H](O)CN1; NMehLys = CN[C@@H](CCCCCN)C(=O)O; Trx = NC[C@H]1CC[C@H](C(=O)O)CC1; NMeK = CN[C@@H](CCCCN)C(=O)O; CO = O=C([*:1])[*:2]; Inp = O=C(O)C1CCNCC1; Ava = NCCCCC(=O)O; GABA = NCCCC(=O)O; βAla = NCCC(=O)O

The results in this text go back to patent US20250222146A1, “Radiopharmaceuticals Targeting Somatostatin Receptor 2 and Uses Thereof” (RayzeBio, Inc., priority 2023, published 2025).

The assay deals with SSTR2 (Homo sapiens, UniProt P30874). In words: SSTR binding affinity by radioligand binding competition assay ([125I]-Tyr11-Somatostatin, membrane extracts). To be noted: radioligand competition, [125I]-Tyr11-Somatostatin 0.1 nM, membrane extracts; Ki from IC50 by Cheng Prusoff; read-out: SSTR2 Ki. For orientation: Displacement assays read how much labelled ligand stays bound in the presence of the test substance.
SSTR2, sequence (P30874 whole entry): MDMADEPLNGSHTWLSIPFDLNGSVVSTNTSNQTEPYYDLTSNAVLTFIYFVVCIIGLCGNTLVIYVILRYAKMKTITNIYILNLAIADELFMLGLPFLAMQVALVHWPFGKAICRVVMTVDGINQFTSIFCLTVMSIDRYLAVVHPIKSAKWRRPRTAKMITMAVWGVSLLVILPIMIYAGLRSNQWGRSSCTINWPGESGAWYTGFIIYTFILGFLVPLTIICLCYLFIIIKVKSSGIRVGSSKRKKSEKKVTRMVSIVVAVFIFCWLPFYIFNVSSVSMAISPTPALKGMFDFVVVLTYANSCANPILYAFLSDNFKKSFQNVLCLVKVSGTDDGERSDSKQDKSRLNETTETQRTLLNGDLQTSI
As to `C[C@@H](O)[C@@H]1NC(=O)[C@H](CC2CCNCC2)NC(=O)[C@@H]([C@@H](C)c2c[nH]c3ccccc23)NC(=O)[C@H](Cc2ccc(O)cc2)NC(=O)[C@@H]2C[C@@H](OC(=O)NCCNC(=O)CN3CCN4CCN5CCN(CC3)CC(=O)[O][Lu]([O]C(=O)C4)[O]C(=O)C5)CN2C(=O)[C@H](Cc2ccccc2)NC1=O` [RB-0006395] (cyclo(F[Hyp]([CO-Ethylenediamine-DOTA(Lu)])Y[dTrp(βS-Me)][Ala(piperidin-4-yl)]T)), the Ki is under 1 nM. The same measure for `C[C@@H](O)[C@@H]1NC(=O)[C@H](CC2CCNCC2)NC(=O)[C@@H]([C@@H](C)c2c[nH]c3ccccc23)NC(=O)[C@H](Cc2ccc(O)cc2)NC(=O)[C@H](CCCCNC(=O)CNC(=O)CN2CCN3CCN4CCN(CC2)CC(=O)[O][Lu]([O]C(=O)C3)[O]C(=O)C4)N(C)C(=O)[C@H](Cc2ccccc2)NC1=O` [RB-0006397] (cyclo(F[NMeK]([Gly-DOTA(Lu)])Y[dTrp(βS-Me)][Ala(piperidin-4-yl)]T)): 1 to 3.33 nM; for `C[C@@H](O)[C@@H]1NC(=O)[C@H](CC2CCNCC2)NC(=O)[C@@H]([C@@H](C)c2c[nH]c3ccccc23)NC(=O)[C@H](Cc2ccc(O)cc2)NC(=O)[C@H](CCCCNC(=O)CCNC(=O)CN2CCN3CCN4CCN(CC2)CC(=O)[O][Lu]([O]C(=O)C3)[O]C(=O)C4)N(C)C(=O)[C@H](Cc2ccccc2)NC1=O` [RB-0006400] (cyclo(F[NMeK]([βAla-DOTA(Lu)])Y[dTrp(βS-Me)][Ala(piperidin-4-yl)]T)): 1 to 3.33 nM; for `C[C@@H](O)[C@@H]1NC(=O)[C@H](CC2CCNCC2)NC(=O)[C@@H]([C@@H](C)c2c[nH]c3ccccc23)NC(=O)[C@H](Cc2ccc(O)cc2)NC(=O)[C@H](CCCCNC(=O)CCCNC(=O)CN2CCN3CCN4CCN(CC2)CC(=O)[O][Lu]([O]C(=O)C3)[O]C(=O)C4)N(C)C(=O)[C@H](Cc2ccccc2)NC1=O` [RB-0006403] (cyclo(F[NMeK]([GABA-DOTA(Lu)])Y[dTrp(βS-Me)][Ala(piperidin-4-yl)]T)): 1 to 3.33 nM.

As to `C[C@@H](O)[C@@H]1NC(=O)[C@H](CC2CCNCC2)NC(=O)[C@@H]([C@@H](C)c2c[nH]c3ccccc23)NC(=O)[C@H](Cc2ccc(O)cc2)NC(=O)[C@H](CCCCNC(=O)CCCCNC(=O)CN2CCN3CCN4CCN(CC2)CC(=O)[O][Lu]([O]C(=O)C3)[O]C(=O)C4)N(C)C(=O)[C@H](Cc2ccccc2)NC1=O` [RB-0006406] (cyclo(F[NMeK]([Ava-DOTA(Lu)])Y[dTrp(βS-Me)][Ala(piperidin-4-yl)]T)), the inhibition constant Ki was 1 to 3.33 nM. The same measure for `C[C@@H](O)[C@@H]1NC(=O)[C@H](CN2CCNCC2)NC(=O)[C@@H]([C@@H](C)c2c[nH]c3ccccc23)NC(=O)[C@H](Cc2ccc(O)cc2)NC(=O)[C@H](CCCCNC(=O)CC[C@@H]2C(=O)[O][Ga]3[O]C(=O)CN4CCN(CCN2CC4)CC(=O)[O]3)N(C)C(=O)[C@H](Cc2ccccc2)NC1=O` [RB-0006414]: 1 to 3.33 nM; for `C[C@@H](O)[C@@H]1NC(=O)[C@H](CN2CCNCC2)NC(=O)[C@@H]([C@@H](C)c2c[nH]c3ccccc23)NC(=O)[C@H](Cc2ccc(O)cc2)NC(=O)[C@H](CCCCNC(=O)[C@H]2CC[C@H](CNC(=O)CN3CCN4CCN5CCN(CC3)CC(=O)[O][Lu]([O]C(=O)C4)[O]C(=O)C5)CC2)N(C)C(=O)[C@H](Cc2ccccc2)NC1=O` [RB-0006420] (cyclo(F[NMeK]([Trx-DOTA(Lu)])Y[dTrp(βS-Me)][Ala(piperazin-1-yl)]T)): 1 to 3.33 nM; for `C[C@@H](O)[C@@H]1NC(=O)[C@H](CC2CCNCC2)NC(=O)[C@@H]([C@@H](C)c2c[nH]c3ccccc23)NC(=O)[C@H](Cc2ccc(O)cc2)NC(=O)[C@H](CCCCCNC(=O)CN2CCN3CCN4CCN(CC2)CC(=O)[O][Lu]([O]C(=O)C3)[O]C(=O)C4)N(C)C(=O)[C@H](Cc2ccccc2)NC1=O` [RB-0006449] (cyclo(F[NMehLys](DOTA(Lu))Y[dTrp(βS-Me)][Ala(piperidin-4-yl)]T)): under 1 nM. With `C[C@@H](O)[C@@H]1NC(=O)[C@H](CC2CCNCC2)NC(=O)[C@@H]([C@@H](C)c2c[nH]c3ccccc23)NC(=O)[C@H](Cc2ccc(O)cc2)NC(=O)[C@H](CCCCNC(=O)C2CCN(C(=O)CN3CCN4CCN5CCN(CC3)CC(=O)[O][Lu]([O]C(=O)C5)[O]C(=O)C4)CC2)N(C)C(=O)[C@H](Cc2ccccc2)NC1=O` [RB-0006452] (cyclo(F[NMeK]([Inp-DOTA(Lu)])Y[dTrp(βS-Me)][Ala(piperidin-4-yl)]T)), the Ki was in the range of 1 to 3.33 nM. As for `C[C@@H](O)[C@@H]1NC(=O)[C@H](CC2CCNCC2)NC(=O)[C@@H]([C@@H](C)c2c[nH]c3ccccc23)NC(=O)[C@H](Cc2ccc(O)cc2)NC(=O)[C@H](CCCCNC(=O)C2CN(C(=O)CN3CCN4CCN5CCN(CC3)CC(=O)[O][Lu]([O]C(=O)C5)[O]C(=O)C4)C2)N(C)C(=O)[C@H](Cc2ccccc2)NC1=O` [RB-0006455] (cyclo(F[NMeK](X9)Y[dTrp(βS-Me)][Ala(piperidin-4-yl)]T)), the inhibitory constant (Ki) lay within 1 to 3.33 nM.

As a reminder, the Ki is the equilibrium dissociation constant of an inhibitor or competing ligand from its target.
